Assay results: US9586951B2 (FUJIFILM Corporation, priority 2013, dated 2017)

What follows are compounds tested against T1, ATM (Homo sapiens, UniProt Q13315) (assay: ATM inhibition test (phosphorylation of Chk2 generated by ionizing radiation, AlphaScreen SureFire)). Conditions: phosphorylated Chk2 in NCI-H460 cells, ionizing radiation 8Gy, 1 hour after test compound treatment; read-out: ATM inhibitory activity.
T1 construct: detecting phosphorylation of Chk2 in a human non-small cell lung cancer cell line NCI-H460 (ATCC company); host or cells: NCI-H460 human non-small cell lung cancer cells
T1 sequence (Q13315 whole entry): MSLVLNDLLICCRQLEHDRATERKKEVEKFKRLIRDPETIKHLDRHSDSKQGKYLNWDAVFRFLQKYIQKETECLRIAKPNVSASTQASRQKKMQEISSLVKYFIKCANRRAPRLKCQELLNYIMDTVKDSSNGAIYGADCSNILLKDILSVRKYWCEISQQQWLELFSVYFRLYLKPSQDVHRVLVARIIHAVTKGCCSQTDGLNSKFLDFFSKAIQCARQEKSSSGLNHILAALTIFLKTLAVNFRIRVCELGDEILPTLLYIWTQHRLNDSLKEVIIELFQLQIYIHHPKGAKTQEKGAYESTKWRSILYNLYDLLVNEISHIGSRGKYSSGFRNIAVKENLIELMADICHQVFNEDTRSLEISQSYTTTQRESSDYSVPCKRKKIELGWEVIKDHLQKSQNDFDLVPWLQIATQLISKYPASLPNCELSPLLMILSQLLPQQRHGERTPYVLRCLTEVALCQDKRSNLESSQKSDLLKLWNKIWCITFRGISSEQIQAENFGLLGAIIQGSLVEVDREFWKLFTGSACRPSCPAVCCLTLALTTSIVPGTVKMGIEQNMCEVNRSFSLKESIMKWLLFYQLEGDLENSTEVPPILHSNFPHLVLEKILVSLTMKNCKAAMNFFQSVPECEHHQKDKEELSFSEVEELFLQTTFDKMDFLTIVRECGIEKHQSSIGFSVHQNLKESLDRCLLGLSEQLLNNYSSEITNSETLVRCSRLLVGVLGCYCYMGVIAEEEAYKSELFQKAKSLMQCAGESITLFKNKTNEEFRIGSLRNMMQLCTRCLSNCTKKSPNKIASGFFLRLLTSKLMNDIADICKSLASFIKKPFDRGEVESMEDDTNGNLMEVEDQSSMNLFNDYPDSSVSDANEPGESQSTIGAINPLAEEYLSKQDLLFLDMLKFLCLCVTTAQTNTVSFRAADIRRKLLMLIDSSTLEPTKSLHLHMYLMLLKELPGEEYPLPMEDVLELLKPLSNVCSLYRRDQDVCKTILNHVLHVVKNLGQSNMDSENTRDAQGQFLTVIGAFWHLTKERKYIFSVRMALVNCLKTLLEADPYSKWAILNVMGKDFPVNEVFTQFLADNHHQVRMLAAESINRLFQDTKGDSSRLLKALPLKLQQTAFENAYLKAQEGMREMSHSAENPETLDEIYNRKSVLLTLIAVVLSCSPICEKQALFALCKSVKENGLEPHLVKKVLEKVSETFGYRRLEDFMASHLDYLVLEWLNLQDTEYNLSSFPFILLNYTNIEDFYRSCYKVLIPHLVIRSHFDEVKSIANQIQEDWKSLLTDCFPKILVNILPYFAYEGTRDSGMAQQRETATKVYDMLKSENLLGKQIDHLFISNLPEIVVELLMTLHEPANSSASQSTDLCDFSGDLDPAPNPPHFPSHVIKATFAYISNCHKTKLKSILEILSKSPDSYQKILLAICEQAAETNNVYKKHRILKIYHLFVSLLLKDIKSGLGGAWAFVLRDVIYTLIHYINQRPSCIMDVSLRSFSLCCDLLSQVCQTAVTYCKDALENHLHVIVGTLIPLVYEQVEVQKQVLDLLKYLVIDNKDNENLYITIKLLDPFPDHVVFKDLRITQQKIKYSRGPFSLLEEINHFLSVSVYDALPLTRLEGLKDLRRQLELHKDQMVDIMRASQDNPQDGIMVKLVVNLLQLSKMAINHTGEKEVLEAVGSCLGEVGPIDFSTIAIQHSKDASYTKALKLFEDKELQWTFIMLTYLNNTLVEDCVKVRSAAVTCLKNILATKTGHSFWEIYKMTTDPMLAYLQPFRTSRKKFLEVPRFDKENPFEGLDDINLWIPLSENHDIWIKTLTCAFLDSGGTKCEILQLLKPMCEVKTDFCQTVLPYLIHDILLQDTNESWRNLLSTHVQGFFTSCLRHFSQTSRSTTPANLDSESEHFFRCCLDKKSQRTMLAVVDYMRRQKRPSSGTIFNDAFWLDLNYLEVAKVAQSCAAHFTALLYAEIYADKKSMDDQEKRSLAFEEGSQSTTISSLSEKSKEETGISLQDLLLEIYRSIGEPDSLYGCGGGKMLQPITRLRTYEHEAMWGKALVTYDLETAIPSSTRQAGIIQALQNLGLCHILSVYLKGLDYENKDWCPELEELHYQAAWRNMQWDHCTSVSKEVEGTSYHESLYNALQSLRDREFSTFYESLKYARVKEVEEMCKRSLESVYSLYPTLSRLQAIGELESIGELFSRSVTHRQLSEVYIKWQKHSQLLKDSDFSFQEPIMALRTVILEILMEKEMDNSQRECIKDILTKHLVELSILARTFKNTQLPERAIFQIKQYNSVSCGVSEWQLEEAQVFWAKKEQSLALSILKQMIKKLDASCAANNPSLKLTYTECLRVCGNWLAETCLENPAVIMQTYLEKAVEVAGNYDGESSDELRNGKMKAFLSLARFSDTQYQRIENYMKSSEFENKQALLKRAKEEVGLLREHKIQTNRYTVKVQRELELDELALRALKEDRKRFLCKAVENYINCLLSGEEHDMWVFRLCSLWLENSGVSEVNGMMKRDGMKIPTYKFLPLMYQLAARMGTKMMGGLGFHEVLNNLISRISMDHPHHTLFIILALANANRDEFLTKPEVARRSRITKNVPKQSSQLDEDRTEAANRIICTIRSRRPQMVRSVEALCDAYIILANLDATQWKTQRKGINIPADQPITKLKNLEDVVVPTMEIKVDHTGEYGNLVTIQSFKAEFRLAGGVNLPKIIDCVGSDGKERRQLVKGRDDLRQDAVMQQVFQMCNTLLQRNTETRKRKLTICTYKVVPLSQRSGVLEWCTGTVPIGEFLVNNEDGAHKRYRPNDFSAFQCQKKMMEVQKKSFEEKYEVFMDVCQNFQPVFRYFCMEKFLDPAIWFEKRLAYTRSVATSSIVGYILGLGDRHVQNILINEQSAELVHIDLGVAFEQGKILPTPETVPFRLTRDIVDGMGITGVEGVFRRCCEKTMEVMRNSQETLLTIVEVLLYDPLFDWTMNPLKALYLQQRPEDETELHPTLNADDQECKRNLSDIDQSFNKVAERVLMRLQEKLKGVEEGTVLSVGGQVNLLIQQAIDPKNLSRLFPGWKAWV
Format: cell-based
Method in brief: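 NCI-H460 cells treated with compound for 1 hour, then irradiated with 8Gy and incubated 1 hour at 37° C. Phospho-Chk2 measured by AlphaScreen SureFire. Inhibition ratio calculated relative to untreated irradiated and non-irradiated wells.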

IC50	Compound
100 to 500 nM	CC(Nc1ccc2c(c1)Sc1cccc(-c3cc(N4CCOCC4)cc(=O)[nH]3)c1S2)c1cc(C#N)ncn1 (centres unmarked) [Example 1-12-84, 6-(1-((6-(4-Morpholino-6-oxo-1,6-dihydropyridin-2-yl)thianthren-2-yl)amino)ethyl)pyrimidine-4-carbonitrile]
100 to 500 nM	COc1cccc(CNc2ccc3c(c2)Cc2cccc(-c4cc(N5CCOCC5)cc(=O)[nH]4)c2O3)n1 [Example 2-2-32, 6-(7-(((6-Methoxypyridin-2-yl)methyl)amino)-9H-xanthen-4-yl)-4-morpholino pyridin-2(1H)-one]
100 to 500 nM	Cc1ccnc(CNc2ccc3c(c2)Cc2ccnc(-c4cc(N5CCOCC5)cc(=O)[nH]4)c2O3)c1 [Example 2-41-7, 6-(7-(((4-Methylpyridin-2-yl)methyl)amino)-5H-chromeno [2,3-c]pyridin-1-yl)-4-morpholino pyridin-2(1H)-one]
100 to 500 nM	CNCc1cccc(C(C)Nc2ccc3c(c2)Sc2cccc(-c4cc(N5CCOCC5)cc(=O)[nH]4)c2S3)n1 (centres unmarked) [Example 1-20-8, 6-(7-((1-(6-((Methylamino)methyl)pyridin-2-yl)ethyl)amino)thianthren-1-yl)-4-morpholino pyridin-2(1H)-one]
100 to 500 nM	CN1CC(CNc2ccc3c(c2)Sc2cccc(-c4cc(N5CCOCC5)cc(=O)[nH]4)c2S3)C1 [Example 1-2-1, 6-(7-(((1-methylazetidin-3-yl)methyl)amino)thianthren-1-yl)-4-morpholinopyridin-2(1H)-one]
100 to 500 nM	O=c1cc(N2CCOCC2)cc(-c2cccc3c2Oc2ccc(NC4CCN(Cc5ccsc5)CC4)cc2C3)[nH]1 [Example 2-28-26, 4-Morpholino-6-(7-((1-(thiophen-3-ylmethyl)piperidin-4-yl)amino)-9H-xanthen-4-yl)pyridin-2(1H)-one]
100 to 500 nM	CC(Nc1ccc2c(c1)Sc1cccc(-c3cc(N4CCOCC4)cc(=O)[nH]3)c1S2)c1ccnc(Cl)n1 (centres unmarked) [Example 1-12-81, 6-(7-((1-(2-Chloropyrimidin-4-yl)ethyl)amino)thianthren-1-yl)-4-morpholino pyridin-2 (1H)-one]
100 to 500 nM	O=c1cc(N2CCOCC2)cc(-c2cccc3c2Sc2ccc(NCc4cccnc4)cc2C3)[nH]1 [Example 3-8-1, 4-Morpholino-6-(7-((pyridin-3-ylmethyl)amino)-9H-thioxanthen-4-yl)pyridin-2(1H)-one]
100 to 500 nM	O=c1cc(N2CCOCC2)cc(-c2cccc3c2Oc2ccc(NCCCc4cccnc4)cc2C3)[nH]1 [Example 2-14-14, 4-Morpholino-6-(7-((3-(pyridin-3-yl)propyl)amino)-9H-xanthen-4-yl) pyridin-2(1H)-one]
< 100 nM	Cc1ccc(C(CCN2CCN(C)CC2)Nc2ccc3c(c2)Sc2cccc(-c4cc(N5CCOCC5)cc(=O)[nH]4)c2S3)nc1 (single isomer, unassigned) [Example 10-3-1, 6-(7-((3-(4-Methylpiperazin-1-yl)-1-(5-methylpyridin-2-yl)propyl)amino)thianthren-1-yl)-4-morpholino pyridin-2 (1H)-one]
100 to 500 nM	Cc1cnc(CNc2ccc3c(c2)Cc2cccc(-c4cc(N5CCOCC5)cc(=O)[nH]4)c2O3)cn1 [Example 2-14-76, 6-(7-(((5-Methylpyrazin-2-yl)methyl)amino)-9H-xanthen-4-yl)-4-morpholino pyridin-2(1H)-one]
100 to 500 nM	Cc1ccnc(C(C)Nc2ccc3c(c2)Cc2ccnc(-c4cc(N5CCOCC5)cc(=O)[nH]4)c2O3)c1 (centres unmarked) [Example 2-42-5, 6-(7-((1-(4-Methylpyridin-2-yl)ethyl)amino)-5H-chromeno[2,3-c]pyridin-1-yl)-4-morpholinopyridin-2(1H)-one]
100 to 500 nM	COc1nccc(C(C)Nc2ccc3c(c2)Cc2cccc(-c4cc(N5CCOCC5)cc(=O)[nH]4)c2O3)n1 (centres unmarked) [Example 2-14-63, 6-(7-((1-(2-Methoxypyrimidin-4-yl)ethyl)amino)-9H-xanthen-4-yl)-4-morpholino pyridin-2(1H)-one]
100 to 500 nM	CC(CN1CCOCC1C)Nc1ccc2c(c1)Sc1cccc(-c3cc(N4CCOCC4)cc(=O)[nH]3)c1S2 (centres unmarked) [Example 1-13-10, 6-(7-((1-(3-Methylmorpholino)propan-2-yl)amino)thianthren-1-yl)-4-morpholino pyridin-2(1H)-one]
100 to 500 nM	O=c1cc(N2CCOCC2)cc(-c2cccc3c2Oc2ccc(NC4CCN(c5ccccn5)CC4)cc2C3)[nH]1 [Example 2-2-27, 4-Morpholino-6-(7-((1-(pyridin-2-yl)piperidin-4-yl)amino)-9H-xanthen-4-yl) pyridin-2(1H)-one]
100 to 500 nM	Cc1cccc(C(CO)Nc2ccc3c(c2)Cc2cccc(-c4cc(N5CCOCC5)cc(=O)[nH]4)c2O3)n1 (racemic) [Example 2-14-38, 6-(7-((2-Hydroxy-1-(6-methylpyridin-2-yl)ethyl)amino)-9H-xanthen-4-yl)-4-morpholino pyridin-2 (1H)-one]

IC50	Compound
500 to 2000 nM	O=c1cc(N2CCOCC2)cc(-c2cccc3c2Oc2ccc(NC4CCN(CCc5ccccn5)CC4)cc2C3)[nH]1 [Example 2-30-3, 4-Morpholino-6-(7-((1-(2-(pyridin-2-yl)ethyl)piperidin-4-yl)amino)-9H-xanthen-4-yl)pyridin-2(1H)-one]
500 to 2000 nM	COc1ncc(CNc2ccc3c(c2)Cc2ccnc(-c4cc(N5CCOCC5)cc(=O)[nH]4)c2O3)cn1 [Example 2-42-1, 6-(7-(((2-Methoxypyrimidin-5-yl)methyl)amino)-5H-chromeno[2,3-c]pyridin-1-yl)-4-morpholinopyridin-2(1H)-one]
< 100 nM	Cc1cnc(C(CCN(C)C)Nc2ccc3c(c2)Sc2cccc(-c4cc(=O)cc(N5CCOCC5)o4)c2S3)cn1 (single isomer, unassigned) [Example 10-8, 2-(7-((3-(dimethylamino)-1-(5-methylpyrazin-2-yl)propyl)amino)thianthren-1-yl)-6-morpholino-4H-pyran-4-one]
500 to 2000 nM	Cn1cc(CNc2ccc3c(c2)Cc2cccc(-c4cc(N5CCOCC5)cc(=O)[nH]4)c2O3)ccc1=O [Example 2-2-45, 1-Methyl-5-(((5-(4-morpholino-6-oxo-1,6-dihydropyridin-2-yl)-9H-xanthen-2-yl)amino)methyl) pyridin-2(1H)-one]
100 to 500 nM	CC(CNC1CCCC1)Nc1ccc2c(c1)Sc1cccc(-c3cc(N4CCOCC4)cc(=O)[nH]3)c1S2 (centres unmarked) [Example 1-13-8, 6-(7-((1-(Cyclopentylamino)propan-2-yl)amino)thianthren-1-yl)-4-morpholino pyridin-2 (1H)-one]
100 to 500 nM	COc1cc(CNc2ccc3c(c2)Cc2ccnc(-c4cc(N5CCOCC5)cc(=O)[nH]4)c2O3)cnc1OC [Example 2-41-10, 6-(7-(((5,6-Dimethoxypyridin-3-yl)methyl)amino)-5H-chromeno[2,3-c]pyridin-1-yl)-4-morpholino pyridin-2(1H)-one]
100 to 500 nM	N#Cc1ccc(CNc2ccc3c(c2)Sc2cccc(-c4cc(N5CCOCC5)cc(=O)[nH]4)c2S3)s1 [Example 1-12-51, 5-(((6-(4-Morpholino-6-oxo-1,6-dihydropyridin-2-yl)thianthren-2-yl)amino)methyl)thiophene-2-carbonitrile]
100 to 500 nM	CC(Nc1ccc2c(c1)Sc1cccc(-c3cc(N4CCOCC4)cc(=O)[nH]3)c1S2)c1cccc(CN2CCCCC2)n1 (centres unmarked) [Example 1-12-109, 4-Morpholino-6-(7-((1-(6-(piperidin-1-ylmethyl)pyridin-2-yl)ethyl)amino)thianthren-1-yl)pyridin-2 (1H)-one]
100 to 500 nM	O=c1cc(N2CCOCC2)cc(-c2cccc3c2Sc2ccc(NCc4nccs4)cc2S3)[nH]1 [Example 1-12-52, 4-Morpholino-6-(7-((thiazol-2-ylmethyl)amino)thianthren-1-yl) pyridin-2 (1H)-one]
100 to 500 nM	O=c1cc(N2CCOCC2)cc(-c2cccc3c2Oc2ccc(NC4CCN(Cc5cncnc5)CC4)cc2C3)[nH]1 [Example 2-28-4, 4-Morpholino-6-(7-((1-(pyrimidin-5-ylmethyl)piperidin-4-yl)amino)-9H-xanthen-4-yl)pyridin-2 (1H)-one]
100 to 500 nM	CN1CCC(Nc2ccc3c(c2)Sc2cccc(-c4cc(N5CCOCC5)cc(=O)[nH]4)c2S3)C1 (centres unmarked) [Example 1-31-1, 6-(7-((1-Methylpyrrolidin-3-yl)amino)thianthren-1-yl)-4-morpholinopyridin-2(1H)-one]
< 100 nM	COc1cncc(C(C)Nc2ccc3c(c2)Sc2cccc(-c4cc(N5CCOCC5)cc(=O)[nH]4)c2S3)c1 (single isomer, unassigned) [Example 1-12-145-2, 6-(7-((1-(5-methoxypyridin-3-yl)ethyl)amino)thianthren-1-yl)-4-morpholinopyridin-2(1H)-one]
500 to 2000 nM	Cc1cccc(C(CO)Nc2ccc3c(c2)Cc2cccc(-c4cc(N5CCOCC5)cc(=O)[nH]4)c2O3)n1 (single isomer, unassigned) [Example 2-14-92-1, 6-(7-((2-hydroxy-1-(6-methylpyridin-2-yl)ethyl)amino)-9H-xanthen-4-yl)-4-morpholinopyridin-2(1H)-one]
500 to 2000 nM	O=C(Nc1ccc2c(c1)Cc1cccc(-c3cc(N4CCOCC4)cc(=O)[nH]3)c1O2)c1cc(Br)ccn1 [Example 2-24, 4-bromo-N-(5-(4-morpholino-6-oxo-1,6-dihydropyridin-2-yl)-9H-xanthen-2-yl)picolinamide]
500 to 2000 nM	CC(Nc1ccc2c(c1)Sc1cccc(-c3cc(N4CCOCC4)cc(=O)[nH]3)c1S2)C1CC1 (centres unmarked) [Example 1-12-43, 6-(7-((1-Cyclopropylethyl)araino)thianthren-1-yl)-4-morpholino pyridin-2(1H)-onc]
100 to 500 nM	COc1cncc(CNc2ccc3c(c2)Cc2cccc(-c4nc(N5CCOCC5)cc(=O)[nH]4)c2O3)c1 [Example 2-52-2, 2-(7-(((5-Methoxypyridin-3-yl)methyl)amino)-9H-xanthen-4-yl)-6-morpholino pyrimidine-4(3H)-one]
